Patent publication US20220194938A1, “NOVEL COMPOUNDS AND PHARMACEUTICAL COMPOSITIONS THEREOF FOR THE TREATMENT OF INFLAMMATORY DISORDERS” (GALAPAGOS NV, priority 2019, published 2022)

Tested on: Collagen Induced Arthritis (CIA)
Test: Mouse collagen induced arthritis (CIA) model
Format: in vivo
Details: mouse CIA, 3, 10 and 30 mg/kg b.i.d., versus disease vehicle group
Method: 5.1. CIA Model 5.1.1. Materials Completed Freund's adjuvant (CFA) and incomplete Freund's adjuvant (IFA) were purchased from Difco. Bovine collagen type II (CII), lipopolysaccharide (LPS), and Enbrel was obtained from Chondrex (Isle d'Abeau, France); Sigma (P4252, L'Isle d'Abeau, France), […] (25 mg injectable syringe, France) Acros Organics (Palo Alto, Calif.), respectively. All other reagents used were of reagent grade and all solvents were of analytical grade. 5.1.2. Animals DBA1/J mice (male, 7-8 weeks old) were obtained from Charles River Laboratories (France). Mice were kept on a 12 h light/dark cycle (07 h00-19 h00). Temperature was maintained at 22° C., and food and water were provided ad libitum. 5.1.3. Collagen Induced Arthritis (CIA) One day before the experiment, CII solution (2 mg/mL) was prepared with 0.05 M acetic acid and stored at 4° C. Just before the immunization, equal volumes of adjuvant (IFA) and CII were mixed by a homogenizer in a pre-cooled glass bottle in an ice water bath. Extra adjuvant and prolonged homogenization may be required if an emulsion was not formed. […] Body weight and clinical score, were recorded twice a week. […] Clinical Assessment of Arthritis Arthritis is scored according to the method of (Khachigian 2006; Lin et al. 2007; Nishida et al. 2004). […] Results For each readout, mean and sem were calculated. […]

## CNC(=O)c1cc2nc(CCC(C)(C)O)cn2cc1NC(=O)c1cccc(C(F)(F)F)n1 [Compound 2, 2-(3-hydroxy-3-methyl-butyl)-N-methyl-6-[[6-(trifluoromethyl)pyridine-2-carbonyl]amino]imidazo[1,2-a]pyridine-7-carboxamide]
  effect on bone erosion Larsen Score: statistically significant effect
